Experimental data: patent US20240117005A1, “NOVEL BICYCLIC PEPTIDES” (THE COUNCIL OF THE QUEENSLAND INSTITUTE OF MEDICAL RESEARCH, priority 2021, published 2024)
Entries after “also recorded” stand apart in the source; their conditions may differ. No end group written: not given here. *: point of attachment. Myristyl = CCCCCCCCCCCCCC*

System: CSV, ABCB5, EGFR, FOXQ1, E-Cadherin in MDA-MB-231 cells
Assay: High resolution digital pathology of mesenchymal/epithelial markers, MDA-MB-231
Type: cell-based, human
Procedure: To examine the signature of CD8, CSV, EGFR, ABCB5, FOXQ1, commercial PD-L1-28-8, nuclear PD-L1, cytoplasmic PDL1 in MDA-MB-231 TNBC cells/TNBC brain cancer clone cells (untreated or treated with bicyclic inhibitors targeting nuclear PD-L1-PTM1). MDA-MB-231/MDA-MB-231-Br cells were permeabilised by incubating with 0.5% Triton X-100 for 15 min, blocked with 1% BSA in PBS and were probed with either CSV (Mouse host), CD8 (mouse host), EGFR (Rabbit host), ABCB5 (Goat Host), ALDH1A (Rabbit Host), NODAL (Goat Host), nuclear PDL1 (rabbit host), cytoplasmic PD-L1 (rabbit host) visualized with a donkey anti-rabbit AF 488, anti-mouse AF 568, donkey anti-goat 647. Cover slips were mounted on glass microscope slides with ProLong Glass Antifade reagent (Life Technologies). Protein targets were localised by digital pathology laser scanning microscopy. Single 0.5 μm sections were obtained using a ASI Digital pathology microscope using 100× oil immersion lens running ASI software. The final image was obtained by averaging four sequential images of the same section. Digital images were analyzed using automated ASI software (Applied Spectral Imaging, Carlsbad, CA) to determine the distribution and intensities automatically with automatic thresholding and background correction of the average nuclear fluorescence intensity (NFI), allowing for the specific targeting of expression of proteins of interest. Digital images were also analysed using ImageJ software (ImageJ, NIH, Bethesda, MD, USA) to determine the total cell fluorescence or cell surface only fluorescence for non-permeabilised cells. Digital images were analysed using ImageJ software (ImageJ, NIH, Bethesda, MD, USA) to determine either the Total Nuclear Fluorescent Intensity (TNFI), the Total Cytoplasmic Fluorescent Intensity (TCFI). ImageJ software with automatic thresholding and manual selection of regions of interest (ROIs) specific for cell nuclei was used to calculate the Pearson's co-efficient correlation (PCC) for each pair of antibodies. PCC values range from: −1=inverse of co-localisation, 0=no co-localisation, +1=perfect co-localisation. The Mann-Whitney nonparametric test (GraphPad Prism, GraphPad Software, San Diego, CA) was used to determine significant differences between datasets.
All breast cancer cell lines used were sourced from ATCC. MDA-MB-231 or MDB-MB-231-Br cell lines were maintained and cultured in DMEM (Invitrogen) supplemented with 10% FBS, 2 mM L-glutamine, and 1% PSN. […]
MDA-MB-231 were permeabilized and treated with either vehicle control or, DL-2 (current stock), or linear PDL1 (PDL1-L1). […] Significant differences are calculated as one-way ANOVA Kruskal-Wallis test comparison to vehicle control. […]

| Compound | expression of the epithelial marker E-Cadherin (MDA-MB-231) | expression of mesenchymal marker CSV (CFI) (MDA-MB-231, vs vehicle control) | mesenchymal stem-like resistant protein markers (CSV, ABCB5, EGFR, FOXQ1) (MDA-MB-231, vs vehicle control) | expression of mesenchymal marker CSV (CFI) (MDA-MB-231, vs vehicle control, listed as linear PDL1 peptide) |
| --- | --- | --- | --- | --- |
| CCCCCCCCCCCCCC(=O)NC(C)C(=O)NC1CSCc2cc3cc(c2)CSC[C@H](NC(=O)[C@H](Cc2ccccc2)NC(=O)[C@H](C(C)CC)NC(=O)[C@H](Cc2ccccc2)NC(=O)[C@H]([C@@H](C)O)NC(=O)C(CC(C)C)NC1=O)C(=O)N[C@@H](CCCNC(C)=N)C(=O)N[C@@H](CC(C)C)C(=O)N[C@@H](CCCNC(=N)N)C(=O)N[C@@H](CCCCN)C(=O)NCC(=O)N[C@@H](CCCNC(=N)N)C(=O)NC(C(=O)N[C@@H](CCSC)C(=O)NC(CCSC)C(=O)N[C@@H](CC(=O)O)C(=O)NC(C(=O)N[C@@H](CCCCN)C(=O)NC(CCCCN)C(=O)O)C(C)C)CSC3 (mixture of isomers) [DL-2] | able to induce expression | inhibit | significantly inhibit | – |
| LTFIFRLRKGRMMDVKK (Myristyl-LTFIFRLRKGRMMDVKK) [PDL1-L1, Myristyl- linear peptide, prototype] | – | – | – | reduce expression of CSV with far less significance; also recorded: able to reduce expression of CSV |
